Reference: publication PMC7118351 (BMB Reports, 2020)
Structures can show the parent of a compound that is named as a salt. Where two headings read alike, the source gives them in different places.

Assays:
in vitro [1] = settings: human
Ebola trVLP replication = assay: microbe, parasite or virus in culture; type: cell-based, Ebola virus (EBOV)
HEK293T cells = settings: human
VP40 = type: cell-based, Ebola virus (EBOV)
EBOV GP = type: cell-based, Ebola virus (EBOV)
in vitro [2] = settings: human; remark: listed apart in the source
[3] = tested on: tetracistronic minigenome RNA incorporated into trVLPs; type: cell-based, Ebola virus (EBOV)
dengue virus = type: cell-based
rhinovirus = type: cell-based

In the case of `NC(=O)c1nc(F)c[nH]c1=O` [Hit T-705, 6-flouro-3-hydroxy-2-pyrazinecarboxamide], the CC50 (in vitro [1]) is reported as > 90 µM, the “SI (selectivity index, ratio of CC50 to EC50)” value (Ebola trVLP replication) is reported as > 13.0 and the EC50 (Ebola trVLP replication; Zaire ebolavirus, HEK-293T) is reported as 4.7 ± 3.1 µM.

For `CN1CCCN(C(c2ccccc2)c2ccc(Cl)cc2)CC1` (centres unmarked) [Homochlorcyclizine], the CC50 (in vitro [1]) was > 30 µM, the “SI (selectivity index, ratio of CC50 to EC50)” value (Ebola trVLP replication) was > 37.1 and the EC50 (Ebola trVLP replication; Zaire ebolavirus, HEK-293T) was 0.8 µM.

In the case of `CN(C)CCCN1c2ccccc2Sc2ccc(C(F)(F)F)cc21` [Triflupromazine], the CC50 (in vitro [1]) is reported as > 30 µM, the “SI (selectivity index, ratio of CC50 to EC50)” value (Ebola trVLP replication) is reported as > 23.8 and the EC50 (Ebola trVLP replication; Zaire ebolavirus, HEK-293T) is reported as 1.4 ± 0.5 µM.

In the case of `NC(=O)c1ncn([C@@H]2O[C@H](CO)[C@@H](O)[C@H]2O)n1` [RBV, ribavirin], the CC50 (HEK293T cells) is reported as > 90 µM, the EC50 (Ebola trVLP replication) is reported as 4.1 ± 2.1 µM and the “SI (selectivity index, ratio of CC50 to EC50)” value (Ebola trVLP replication) is reported as > 16.3. The “VP40 protein level (Western blot)” value (VP40) was “downregulated in a dose-dependent manner” and the “reduction of the number of GP-positive spots” value (“reduction” below) (EBOV GP) was 62.5%.

For `O=C(c1ccc(OCCN2CCCCC2)cc1)c1c(-c2ccc(O)cc2)sc2cc(O)ccc12` [Raloxifene, raloxifene hydrochloride], the CC50 (HEK293T cells) was 25.6 ± 0.2 µM, the CC50 (in vitro [2]) was 23.4 µM and the “amount of negative-sense minigenome RNA incorporated into trVLPs” value (shortened to “amount”) [3] was “suppression of the amount of negative-sense minigenome RNA incorporated into trVLPs in a dose-dependent manner”. The CC50 (in vitro [1]) was 13.9 µM, the “SI (selectivity index, ratio of CC50 to EC50)” value (Ebola trVLP replication) was 47.1 ± 2.2 and the “viral inhibition in cells” value (dengue virus) was “no viral inhibition”. The “VP40 protein level (Western blot)” value (VP40) was “downregulated in a dose-dependent manner”, the “viral inhibition in cells” value (rhinovirus) was “no viral inhibition” and the “reduction” value (EBOV GP) was 69.1%.

`CNCCCC12CCC(c3ccccc31)c1ccccc12` [Maprotiline] showed a CC50 (in vitro [1]) of 25.1 ± 2.1 µM.

For `O=C1NCCN1CCN1CCC(c2cn(-c3ccc(F)cc3)c3ccc(Cl)cc23)CC1` [Sertindole], the CC50 (HEK293T cells) was > 30 µM, the CC50 (in vitro [2]) was 13.7 µM and the “amount” value [3] was “suppression of the amount of negative-sense minigenome RNA incorporated into trVLPs in a dose-dependent manner”. The CC50 (in vitro [1]) was 23.1 µM, the “SI (selectivity index, ratio of CC50 to EC50)” value (Ebola trVLP replication) was > 45.8 and the “viral inhibition in cells” value (dengue virus) was “no viral inhibition”. For the same compound, the “VP40 protein level (Western blot)” value (VP40) was “downregulated in a dose-dependent manner”, the “viral inhibition in cells” value (rhinovirus) was “no viral inhibition” and the “reduction” value (EBOV GP) was 84.7%.

For `CC(=O)c1ccc2c(c1)N(CCCN1CCC(CCO)CC1)c1ccccc1S2` [Piperacetazine], the CC50 (in vitro [1]) was 26.1 ± 5.5 µM, the “SI (selectivity index, ratio of CC50 to EC50)” value (Ebola trVLP replication) was 15.7 ± 4.6 and the EC50 (Ebola trVLP replication; Zaire ebolavirus, HEK-293T) was 2 ± 0.6 µM.

In the case of `OCCN1CCN(CCCN2c3ccccc3Sc3ccc(Cl)cc32)CC1` [Perphenazine], the CC50 (in vitro [1]) is reported as 17.4 ± 0.6 µM, the “SI (selectivity index, ratio of CC50 to EC50)” value (Ebola trVLP replication) is reported as 27.7 ± 9.2 and the EC50 (Ebola trVLP replication; Zaire ebolavirus, HEK-293T) is reported as 0.7 ± 0.2 µM.

For `CN1[C@@H]2CC[C@H]1C[C@@H](OC(c1ccccc1)c1ccccc1)C2` [Benztropine mesylate], the CC50 (in vitro [1]) was > 30 µM.

In the case of `CC(C)(N)C(=O)N[C@H](COCc1ccccc1)C(=O)N1CCC2(CC1)CN(S(C)(=O)=O)c1ccccc12` [Ibutamoren mesylate, ibutamoren mesylate], the CC50 (HEK293T cells) is reported as > 30 µM, the CC50 (in vitro [2]) is reported as 76.7 µM and the “amount” value [3] is reported as “suppression of the amount of negative-sense minigenome RNA incorporated into trVLPs in a dose-dependent manner”. The EC50 (Ebola trVLP replication) was < 0.4 µM, the “S.I. (selectivity index)” value (Ebola trVLP replication) was 222.8 and the “SI (selectivity index, ratio of CC50 to EC50)” value (Ebola trVLP replication) was > 81.1. For the same compound, the EC50 (Ebola trVLP replication; Zaire ebolavirus, HEK-293T) was 0.2 µM, the “VP40 protein level (Western blot)” value (VP40) was “downregulated in a dose-dependent manner” and the “reduction” value (EBOV GP) was 74.2%.

For `CN(C)C(=O)C(CCN1CCC(O)(c2ccc(Cl)cc2)CC1)(c1ccccc1)c1ccccc1` [Loperamide], the CC50 (in vitro [1]) was > 30 µM.

In the case of `Cc1[nH]c(/C=C2\C(=O)Nc3ccc(S(=O)(=O)N(C)c4cccc(Cl)c4)cc32)c(C)c1C(=O)N1CCN(C)CC1` [SU11274], the CC50 (in vitro [1]) is reported as > 30 µM, the “SI (selectivity index, ratio of CC50 to EC50)” value (Ebola trVLP replication) is reported as > 13.6 and the EC50 (Ebola trVLP replication; Zaire ebolavirus, HEK-293T) is reported as 2.6 ± 1.4 µM.

With `CCCC(C(=O)OCCN(CC)CC)(c1ccccc1)c1ccccc1` [Proadifen] the CC50 (in vitro [1]) was > 30 µM, the “SI (selectivity index, ratio of CC50 to EC50)” value (Ebola trVLP replication) was > 11.6 and the EC50 (Ebola trVLP replication; Zaire ebolavirus, HEK-293T) was 2.7 ± 0.7 µM.

With `CN1CCN(C(c2ccccc2)c2ccc(Cl)cc2)CC1` (centres unmarked) [Chlorcyclizine] the CC50 (in vitro [1]) was > 30 µM, the “SI (selectivity index, ratio of CC50 to EC50)” value (Ebola trVLP replication) was > 17.0 and the EC50 (Ebola trVLP replication; Zaire ebolavirus, HEK-293T) was 2.7 ± 2.2 µM.

For `CN1[C@@H]2CC[C@H]1C[C@@H](OC(c1ccccc1)c1ccc(Cl)cc1)C2` (some centres unmarked) [Hit 3-CPMT, 3a-[(4-chlorophenyl)phenylmethoxy]tropane], the CC50 (in vitro [1]) was > 30 µM, the “SI (selectivity index, ratio of CC50 to EC50)” value (Ebola trVLP replication) was > 26.3 and the EC50 (Ebola trVLP replication; Zaire ebolavirus, HEK-293T) was 1.3 ± 0.5 µM.
